One may read the inhibition as the percentage by which the read-out fell short of the control. As a reminder, the pIC50 is the IC50 on a negative log10 scale, so that one unit is a factor of ten.

pIC50: −log10 of the molar value. Activity calls are given as the source filed them. The calls are words filed in the database; no cut-off is given here.

The values below come from ChEMBL document CHEMBL3046576, “Rational exploration of new pyridinium-based HSP90 inhibitors tailored to thiamine structure” (Med Chem Res, 2012).

Test [1] deals with T1, Heat shock protein HSP 90-alpha (Homo sapiens, UniProt P07900). Nature of the test: Inhibition of recombinant Homo sapiens (human) Hsp90 alpha ATPase activity assessed as inorganic phosphate release at 10 uM by malachite green colorimetric method.
Test [2] deals with T1, Heat shock protein HSP 90-alpha. Nature of the test: Inhibition of recombinant Homo sapiens (human) Hsp90 alpha ATPase activity assessed as inorganic phosphate release by malachite green colorimetric method.

In the case of `CSc1ccc(NC(=O)C[n+]2cccc(C(=O)Nc3ccc(Cl)cc3)c2)cc1`, the inhibition in test [1] turned out to be 24%.
Consider `C=CCNC(=O)C[n+]1cccc(C(N)=O)c1`, for which, in test [1], the inhibition entry is “inactive”.
On the same count and under the same terms, then `COc1ccc(NC(=O)C[n+]2cccc(C(N)=O)c2)cc1`, with 20%; and `O=C(C[n+]1ccccc1)Nc1ccccc1`, with 3%; and `N=C(N)NS(=O)(=O)c1ccc(NC(=O)C[n+]2ccccc2)cc1`, with 20%.
With `CSc1ccc(NC(=O)c2ccc[n+](CC(=O)Nc3ccc(Cl)cc3)c2)cc1`, in test [1], the inhibition is 19%.
As to `C=CCNC(=O)c1ccc[n+](CC(=O)Nc2ccc(C)cc2)c1`, the inhibition in test [1] turned out to be 23%.
With `NC(=O)c1ccc[n+](CC(=O)NCCc2ccccc2)c1`, in test [2], the pIC50 was 4.79. For the same compound, the inhibition in test [1] was determined as 46%.
As to `NS(=O)(=O)c1ccc(NC(=O)C[n+]2ccccc2)cc1`, the inhibition in test [1] was 7%.
`O=C(C[n+]1cccc(C(=O)Nc2ccc(Cl)cc2)c1)Nc1ccc([N+](=O)[O-])cc1`: the inhibition in test [1] was 24%.
On the same count and under the same terms, then `O=C(C[n+]1cccc(C(=O)Nc2ccc(Cl)cc2)c1)Nc1ccc(Cl)cc1`, with “inactive”.
Take `Cc1ncc(C[n+]2csc(CCO)c2C)c(N)n1` [THIAMINE ION]: the pIC50 in test [2] was 4.90. The inhibition in test [1] was determined as 40%.
On to `CSc1ccc(NC(=O)C[n+]2cccc(C(=O)Nc3ccccc3)c2)cc1`, for which the inhibition in test [1] was determined as 14%.
On to `COc1ccc(NC(=O)C[n+]2cccc(C(=O)Nc3ccc(SC)cc3)c2)cc1`, for which the inhibition in test [1] came to 29%.
Turning to `CC(=O)NS(=O)(=O)c1ccc(NC(=O)C[n+]2cccc(C(N)=O)c2)cc1`, in test [2], the pIC50 was 4.90. Besides, the inhibition in test [1] is 36%.
Take `O=C(C[n+]1cccc(C(=O)Nc2ccccc2)c1)Nc1ccc([N+](=O)[O-])cc1`: the inhibition in test [1] turned out to be 11%.
In the case of `Cc1ccc(NC(=O)C[n+]2ccccc2)cc1`, the inhibition result in test [1] is “inactive”.
Take `NC(=O)c1ccc[n+](CC(=O)Nc2ccc(S(N)(=O)=O)cc2)c1`: the pIC50 in test [2] is 4.92. The inhibition in test [1] was determined as 32%.
`CSc1ccc(NC(=O)c2ccc[n+](CC(=O)Nc3ccc(C)cc3)c2)cc1`: the inhibition in test [1] stood at 18%.
Turning to `CCOC(=O)C[n+]1cccc(C(N)=O)c1`, the inhibition in test [1] came to 13%.
`O=C(C[n+]1ccccc1)Nc1ccc([N+](=O)[O-])cc1`: the pIC50 in test [2] is 4.83. Further, the inhibition in test [1] came out at 34%.
Regarding `NC(=O)c1ccc[n+](Cc2ccccc2)c1`, the inhibition in test [1] turned out to be 10%.
Turning to `COc1ccc(NC(=O)c2ccc[n+](CC(=O)Nc3ccc(S(N)(=O)=O)cc3)c2)cc1`, the inhibition in test [1] was found to be 23%.
For the compound `NC(=O)c1ccc[n+](CC(=O)Nc2ccc(Cl)cc2)c1`, the inhibition in test [1] was determined as 24%.
On to `NC(=O)c1ccc[n+](CC(=O)Nc2ccccc2)c1`, for which the pIC50 in test [2] was 4.88. In addition, the inhibition in test [1] came out at 37%.
On to `CSc1ccc(NC(=O)c2ccc[n+](CC(=O)Nc3ccc([N+](=O)[O-])cc3)c2)cc1`, for which the inhibition in test [1] stood at 3%.
As to `COc1ccc(NC(=O)C[n+]2cccc(C(=O)Nc3ccc(OC)cc3)c2)cc1`, the inhibition in test [1] was 3%.
Consider `Cc1ccc(NC(=O)C[n+]2cccc(C(=O)Nc3ccc(Cl)cc3)c2)cc1`, for which the pIC50 in test [2] is 4.76. The inhibition in test [1] was 48%.
Turning to `C=CCNC(=O)c1ccc[n+](CC(=O)Nc2ccc(OC)cc2)c1`, in test [2], the pIC50 is 4.31. Besides, in test [1], the inhibition came to 32%.
The like results for `O=C(C[n+]1ccccc1)NCc1ccccc1` were, in that order, 4.30 and 36%.
Regarding `NC(=O)c1ccc[n+](CCc2ccccc2)c1`, the inhibition in test [1] worked out at 9%.
Turning to `COc1ccc(NC(=O)c2ccc[n+](CC(=O)Nc3ccc([N+](=O)[O-])cc3)c2)cc1`, in test [1], the inhibition result is “inactive”.
`NS(=O)(=O)c1ccc(NC(=O)C[n+]2cccc(C(=O)Nc3ccc(Cl)cc3)c2)cc1`: the inhibition in test [1] is 3%.
As to `COc1ccc(NC(=O)C[n+]2cccc(C(=O)Nc3ccc([N+](=O)[O-])cc3)c2)cc1`, the inhibition result in test [1] is “inactive”.
Take `COc1ccc(NC(=O)C[n+]2ccccc2)cc1`: the pIC50 in test [2] is 4.88. The inhibition in test [1] stood at 43%.
For `NS(=O)(=O)c1ccc(NC(=O)C[n+]2cccc(C(=O)Nc3ccccc3)c2)cc1` the same measures were 4.58 and 47%.
For the compound `Cc1ccccc1NC(=O)C[n+]1cccc(C(N)=O)c1`, the inhibition in test [1] was found to be 8%.
On to `NS(=O)(=O)c1ccc(NC(=O)C[n+]2cccc(C(=O)Nc3ccc([N+](=O)[O-])cc3)c2)cc1`, for which the inhibition in test [1] turned out to be 8%.
Regarding `NC(=O)c1ccc[n+](CC(=O)NCc2ccccc2)c1`, the inhibition in test [1] was 20%.
On the same count and under the same terms, under `N=C(N)NS(=O)(=O)c1ccc(NC(=O)C[n+]2cccc(C(N)=O)c2)cc1` stands 29%; under `Cc1ccc(NC(=O)C[n+]2cccc(C(=O)Nc3cccc(C)c3)c2)cc1`, 16%.
For `Cc1cccc(NC(=O)C[n+]2cccc(C(N)=O)c2)c1`, the pIC50 in test [2] is 4.88. In addition, in test [1], the inhibition stood at 34%.
As for `CC(=O)NS(=O)(=O)c1ccc(NC(=O)C[n+]2ccccc2)cc1`, the pIC50 in test [2] was 4.90. Besides, the inhibition in test [1] is 46%.
Consider `Cc1ccc(NC(=O)C[n+]2cccc(C(N)=O)c2)cc1`, for which the pIC50 in test [2] was 4.37. Also, the inhibition in test [1] was found to be 34%.
Regarding `C=CCNC(=O)c1ccc[n+](CC(=O)Nc2ccc(Cl)cc2)c1`, in test [1], the inhibition worked out at 1.6%.
`Cc1ccc(NC(=O)C[n+]2cccc(C(=O)Nc3ccccc3)c2)cc1`: the pIC50 in test [2] was 5.13. The inhibition in test [1] was found to be 59%.
For the compound `Cc1cccc(NC(=O)C[n+]2ccccc2)c1`, in test [1], the inhibition was 12%.
As for `NC(=O)c1ccc[n+](CC(=O)Nc2ccc([N+](=O)[O-])cc2)c1`, in test [2], the pIC50 is 5.12. Besides, the inhibition in test [1] stood at 62%.
Turning to `COc1ccc(NC(=O)c2ccc[n+](CC(=O)Nc3ccc(Cl)cc3)c2)cc1`, in test [1], the inhibition was found to be 10%.
As for `C=CCNC(=O)c1ccc[n+](CC(=O)Nc2ccc([N+](=O)[O-])cc2)c1`, in test [1], the inhibition worked out at 20%.
On the same count and under the same terms, under `Cc1ccc(NC(=O)C[n+]2cccc(C(=O)Nc3ccc([N+](=O)[O-])cc3)c2)cc1` stands 21%; under `COc1ccc(NC(=O)C[n+]2cccc(C(=O)Nc3ccc(Cl)cc3)c2)cc1`, 2%.
Regarding `COc1ccc(NC(=O)c2ccc[n+](CC(=O)Nc3ccc(C)cc3)c2)cc1`, the inhibition in test [1] was 20%.
On to `COc1ccc(NC(=O)C[n+]2cccc(C(=O)Nc3ccccc3)c2)cc1`, for which the inhibition in test [1] is 4%.
On to `Cc1cccc(NC(=O)c2ccc[n+](CC(=O)Nc3ccc(Cl)cc3)c2)c1`, for which the inhibition in test [1] worked out at 24%.
The same measure, in the same setting: under `O=C(C[n+]1ccccc1)Nc1ccc(Cl)cc1` stands 3%; under `O=C(C[n+]1cccc(C(=O)Nc2ccccc2)c1)Nc1ccc(Cl)cc1`, 17%.
